Data: patent publication US5368775A, “Corrosion control composition and method for boiler/condensate steam system” (priority 1993, dated 1994)
Like-named read-outs stand apart in the source and are kept apart here. One block for each molecule: values may come before it.

Assays:
[1] = cited from earlier work
[2] = Additional testing of decomposition products of high molecular weight amines; assay type: physicochemical; conditions: for formation from DMAPA: additional testing with DMAPA
[3] = Decomposition of feed amine at boiler conditions from steam concentration (Table III)
Method: The effects of common boiler/condensate temperature and pressure on relatively high molecular weight amine was studied. The relatively high molecular weight amines methoxypropylamine (MOPA) and DMAPA were exposed to boiler condition and the steam concentrations of the feed amines measured. From this information the percent decomposition was calculated.

[4] = Table I properties of amines: basicity, distribution ratios, flash point; assay type: physicochemical
Excerpt: The preferred relatively high molecular weight amine of the present invention is dimethylaminopropylamine (DMAPA) or N,N-dimethyl-1,3-propanediamine. […] When DMAPA is subjected to common boiler temperatures and pressures of from 100, and preferably over 200, to 1500 psig, the DMAPA will partially decompose. The partial decomposition of DMAPA forms DMA and TMA.

[5] = Lab scale test boiler, DMAPA feed, formation of DMA and TMA in feedwater (GC), 1,450 psig; assay type: physicochemical; conditions: for Feedwater composition: feedwater initially 200 ppm DMAPA; for Feedwater conductivity / Feedwater pH: DMAPA feed
Excerpt: The following lab scale experiment verified the formation of DMA and TMA.
A research scale, electrically heated test boiler was charged with nitrogen sparged (a mechanical deaeration), demineralized water. The water was supplied by high pressure pump to a D-configuration stainless steel boiler having an internal volume of approximately 5 liters. Two 4000 watt Incoloy 800 resistance heaters produced a steam rate of approximately 17 lbs/hr at a steam pressure of 1,450 psig (correspond to a temperature of 593° F.).
Cycles of concentration were held at approximately 15 by controlling boiler blowdown rate to 1.1 lbs/hr. The saturated steam produced was routed back into the feed tank and mixed with the original feedwater. This follows common industry practice where for economy the maximum amount of condensate is returned to the boiler as feedwater. The feedwater initially contained 200 ppm of DMAPA (Aldrich 99%) and 1.4 ppm hydrazine for deaeration. The feedwater (to which the condensed steam was recycled) was analyzed by gas chromatography and DMA and TMA were quantitated by comparison to external standards.

[6] = cited from earlier work; remark: listed apart in the source
[7] = Lab scale test boiler, DMAPA feed, formation of DMA and TMA in feedwater (GC), 1,450 psig; assay type: physicochemical
[8] = Research boiler decomposition, 200 to 600 psig (FIG. 1); assay type: physicochemical; conditions: virtually any pressure, especially above about 200 psig
Excerpt: Additional testing in a research boiler was undertaken at pressures of from 200 to 600 psig in 100 psig steps. The high molecular weight amines tested included DMAPA, DEAE and MOPA. The boiler system was operated at 100% condensate return at 15 cycles. Feed tank, steam and blowdown samples were taken at the end of each run and analyzed by gas chromatograph (GC).
A condensate modeling system was used to simulate the boiler runs and estimate. The theoretical steam concentration possible if no amine decomposition occurred. Using the theoretical concentration and the analytical value obtained from GC analysis, the percent decomposition was calculated and the results summarized in FIG. 1.

[9] = Low pressure (175 psig) package boiler study of DEAE and DMAPA (Table IV); conditions: for Feedwater concentration / Steam concentration: 175 psig boiler
Method: A study of the effects of a relatively low pressure boiler on DEAE and DMAPA was undertaken. The study was conducted in a 175 psig package boiler. The boiler was operated at 41 cycles with no condensate return so that the amine present in the steam could only come from the feedwater and not from the return of condensate. DEAE and DMAPA were-fed simultaneously at 50 ppm to the feedwater. The boiler was operated overnight to allow the system to equilibrate. […] The concentrations were determined by gas chromatography.

Molecule: C1COCCN1 [Morpholine]
Distribution ratio ([1]; at atmospheric pressure): 0.4

Molecule: dimethylaminopropanol [DMAP]
formation from DMAPA [2]: confirmed

decomposition at boiler conditions ([2]; temperature and pressure common to a typical boiler/condensate steam system): do not decompose
stability at boiler conditions ([3]; 1500 psig): essentially stable
% Decomposition ([3]; 1500 psig, feedwater 61 ppm): 4.9%
Steam concentration ([3]; 1500 psig, feedwater 61 ppm): 58 ppm
% Decomposition ([3]; 2500 psig, feedwater 61 ppm): 24.6%
Steam concentration ([3]; 2500 psig, feedwater 61 ppm): 46 ppm
Molecule: COCCCN [MOPA, methoxypropylamine]

Molecule: CN [MA, methylamine]
formation from DMAPA [2]: confirmed

Molecule: N [ammonia]
Distribution ratio ([1]; at atmospheric pressure): 10.0

Molecule: CN(C)C [TMA, trimethylamine]
Flash Pt. [4]: 20 °F
Feedwater composition ([5]; 22 hrs., sample 12): 9 ppm
Feedwater composition ([5]; 46 hrs., sample 13): 16 ppm
Feedwater composition ([5]; 79 hrs., sample 14): 25 ppm
Feedwater composition ([5]; 94 hrs., sample 15): 32 ppm
times more volatile than cyclohexylamine ([6]; at boiler pressures from 100 to 1500 psig): 2-5 times
volatility relative to DMAPA [7]: significantly more volatile than DMAPA

Molecule: CC(O)CN(C)C (centres unmarked) [dimethylisopropanol amine]
Distribution ratio ([1]; at atmospheric pressure): 1.7

Molecule: NC1CCCCC1 [cyclohexylamine]
Distribution ratio ([1]; at atmospheric pressure): 4.0

Flash Pt. [4]: 84 °F
Distribution ratio ([4]; 100 psig): 1.1
Distribution ratio ([4]; 200 psig): 1.9
Distribution ratio ([4]; 600 psig): 2.0
pKa ([4]; second of two pKa values, read-out: Basicity (pKa), second value): 8.2
pKa ([4]; single or first pKa, read-out: Basicity (pKa)): 10
Feedwater conductivity ([5]; 22 hrs.): 160 uS
Feedwater pH ([5]; 22 hrs.): 10.35
Feedwater conductivity ([5]; 46 hrs.): 195 uS
Feedwater pH ([5]; 46 hrs.): 10.40
Feedwater conductivity ([5]; 79 hrs.): 200 uS
Feedwater pH ([5]; 79 hrs.): 10.65
Feedwater conductivity ([5]; 94 hrs.): 230 uS
Feedwater pH ([5]; 94 hrs.): 10.35
decomposition compared to MOPA [8]: significantly higher than MOPA
Feedwater concentration ([9]; time 1): 44 ppm
Steam concentration ([9]; time 1): 42 ppm
Feedwater concentration ([9]; time 2): 44 ppm
Steam concentration ([9]; time 2): 42 ppm
Feedwater concentration ([9]; time 3): 45 ppm
Steam concentration ([9]; time 3): 42 ppm
Feedwater concentration ([9]; time 4): 44 ppm
Steam concentration ([9]; time 4): 42 ppm
Feedwater concentration ([9]; time 5): 46 ppm
Steam concentration ([9]; time 5): 42 ppm
Feedwater concentration ([9]; time 6): 44 ppm
Steam concentration ([9]; time 6): 42 ppm
Feedwater concentration ([9]; time 7): 38 ppm
Steam concentration ([9]; time 7): 40 ppm
Steam concentration ([3]; 200 psig, feedwater 106 ppm): 98.4 ppm
Steam concentration ([3]; 600 psig, feedwater 106 ppm): 78.8 ppm
Steam concentration ([3]; 900 psig, feedwater 106 ppm): 68.7 ppm
Steam concentration ([3]; 1450 psig, feedwater 106 ppm): 37.3 ppm
Molecule: CN(C)CCCN [DMAPA, N,N-dimethyl-1,3-propanediamine]
concentration of DMA and TMA with time on DMAPA addition ([5]; 22 to 94 hrs.): steadily increasing concentration of DMA and TMA with time

Molecule: CNC [DMA, dimethylamine]
Flash Pt. [4]: 60 °F
Distribution ratio ([4]; 100 psig): 2.4
Distribution ratio ([4]; 200 psig): 2.1
Distribution ratio ([4]; 600 psig): 3.3
Basicity (pKa) ([4]; single or first pKa): 10.8
Feedwater composition ([5]; 22 hrs., sample 12): 5 ppm
Feedwater composition ([5]; 46 hrs., sample 13): 11 ppm
Feedwater composition ([5]; 79 hrs., sample 14): 20 ppm
Feedwater composition ([5]; 94 hrs., sample 15): 25 ppm
pKa [6]: 10.77
Distribution ratio (DR) ([6]; pressure not stated): 2-5
volatility relative to DMAPA [7]: significantly more volatile than DMAPA

Molecule: O=C=O [carbon dioxide]
Distribution ratio ([1]; depending upon temperature): ≥ 100

Molecule: CCNCC [DEA, diethylamine]
Distribution ratio ([6]; at 1000 psig): 28

Molecule: CCN(CC)CCO [DEAE, diethylaminoethanol]
hydrothermal stability ([9]; lower saturation pressures of this test (175 psig boiler)): hydrothermally stable
